Test results from US8501810B2, “Guanidino acetic acid used as an animal food additive” (AlzChem Trostberg GmbH, priority 2004, dated 2013).
Blank lines part the entries; values can stand above or below the compound they belong to.

What was measured:
[1] = Feed for growing hens, additive in air-dried feed, 42 days' growing duration; assay type: in vivo
Source text: 1.4 Feed for Growing Hens
In addition, with this feed additive, the feed consumption decreased by about 6% compared with previous feeding methods.
In addition, it was found in this experiment that even an addition of 0.032% by weight of guanidinoacetic acid (0.32 g/kg) to the air-dried feed increased the final weight by 3% for 42 days' growing duration. The feed consumption decreased by 3% compared with previous feeding methods.

[2] = Comparative example: creatine in the feed for growing hens, 41 days growing duration; assay type: in vivo; conditions: 0.2% (2 g/kg) in air-dried feed
Source text: 2. Comparative Example (According to EP 920 689)
The effect of the addition of creatine in the feed for growing hens was investigated.
The feed consumption decreased by about 2-3% compared with previous feeding methods.

[3] = young rats, cited from earlier work
[4] = 1.112% in base feed, also in combination with methionine; cited from earlier work
[5] = Stability in acidic aqueous solution; assay type: physicochemical
Source text: Thus in contrast to creatine, the majority of the compounds administered or fed, guanidinoacetic acid and/or salts of guanidinoacetic acid, are not degraded by instability reactions, for example in the stomach, and excreted before resorption, but are in fact available in the corresponding physiological metabolic reactions.

Staphyllococcus aureus = conditions: cited from earlier work
[6] = control group, 0.04% by weight (0.4 g/kg) in air-dried feed
[7] = 0.032% by weight (0.32 g/kg) in air-dried feed
[8] = 0.092% by weight (0.92 g/kg) in air-dried feed

Structure (SMILES): CN(CC(=O)O)C(=N)N.O [creatine monohydrate, reference compound]
decrease in feed consumption [1, 6]: no decreased feed consumption
increase in the final weight [1, 6]: no increase in the final weight

Structure (SMILES): CN(CC(=O)O)C(=N)N [creatine]
decrease in feed consumption compared with previous feeding methods [2]: 2-3%
increase in the final weight compared with previous feeding methods [2]: 4%
meat quality [2]: improved quality
nature of the increase in weight (lean-body mass index) [2]: only by meat gain, but not by fat gain

stability in acidic aqueous solution in contrast to creatine and creatine monohydrate [5]: significantly higher stability
Structure (SMILES): N=C(N)NCC(=O)O [guanidinoacetic acid]
decrease in feed consumption compared with previous feeding methods [1, 7]: 3%
increase in the final weight [1, 7]: 3%
decrease in feed consumption compared with previous feeding methods [1, 8]: about 6%
increase in the final weight compared with previous feeding methods [1, 8]: 7%
meat quality [1, 8]: improved quality
nature of the increase in weight (lean-body mass index) [1, 8]: solely by meat gain, but not by fat gain or water accumulation
creatine content in the skeletal musculature and in the heart muscle ([3]; additional administration of methionine): increased
effect on the muscle creatine level ([3]; in combination with folacin and vitamin B12): no effect
effect on growth [3]: inhibitory activity
feed utilization [4]: significant decrease
weight gain [4]: significant decrease
use against bacterial infections in animal experiments (Staphyllococcus aureus): successfully used
